Results: ChEMBL document CHEMBL1201862, “PubChem BioAssay data set” (2004)
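96-well plates; 48 h exposure; 5 concentrations. Endpoints by linear interpolation between flanking doses. Not reached: highest tested concentration assigned. At the GI50, growth is halved.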 Activity calls are given as the source filed them. Rule as the data show it: active = GI50 up to about 1.1 µM and inactive = higher.

Experiments:
Assay in all cases: NCI-60 cell line screen, 48 h
MDA-MB-231 = test system: MDA-MB-231
MOLT-4 = test system: MOLT-4
DU-145 = test system: DU-145
HOP-92 = test system: HOP-92
MDA-MB-435 = test system: MDA-MB-435
PC-3 = test system: PC-3
Malme-3M = test system: Malme-3M
NCI-H460 = test system: NCI-H460
CCRF-CEM = test system: CCRF-CEM
K562 = test system: K562
SK-MEL-28 = test system: SK-MEL-28
SW-620 = test system: SW-620
HCT-15 = test system: HCT-15
MDA-N = test system: MDA-N
COLO 205 = test system: COLO 205

SMILES	GI50 (MDA-MB-231)	GI50 (MOLT-4)	GI50 (DU-145)	GI50 (HOP-92)	GI50 (MDA-MB-435)	GI50 (PC-3)	GI50 (Malme-3M)	GI50 (NCI-H460)	GI50 (CCRF-CEM)	GI50 (K562)	GI50 (SK-MEL-28)	GI50 (SW-620)	GI50 (HCT-15)	GI50 (MDA-N)	GI50 (COLO 205)
O=C(c1ccccc1)N1CCC(Nc2cccnc2)O1 (stereo unspecified)	> 100 µM (inactive)	> 100 µM (inactive)	> 100 µM (inactive)	> 100 µM (inactive)	> 100 µM (inactive)	> 100 µM (inactive)	60.3 µM (inactive)	> 100 µM (inactive)	> 100 µM (inactive)	> 100 µM (inactive)	> 100 µM (inactive)	> 100 µM (inactive)	> 100 µM	> 100 µM (inactive)	–
COC(=O)c1ccc2c(c1)S/C(=C/c1ccc3ccc4cccc5ccc1c3c45)S2	> 100 µM (inactive)	> 100 µM (inactive)	> 100 µM (inactive)	43.5 µM (inactive)	26.6 µM (inactive)	48.1 µM (inactive)	32.7 µM (inactive)	64.4 µM (inactive)	34.5 µM (inactive)	34.3 µM (inactive)	–	27.6 µM (inactive)	28.1 µM	52.5 µM (inactive)	> 100 µM (inactive)
O=[N+]([O-])c1ccc(N/N=C(\c2ccccc2)c2ccccn2)nc1	1 µM (active)	–	5.53 µM (inactive)	10.5 µM (inactive)	7.41 µM (inactive)	0.92 µM (active)	0.0367 µM (active)	0.957 µM (active)	< 0.0218 µM (active)	–	9.14 µM (inactive)	0.223 µM (active)	0.151 µM	20 µM (inactive)	< 0.0391 µM (active)
COc1ccc(/C=C2/CCS(=O)(=O)c3ccc(C)cc3C2=O)cc1OC	12.8 µM (inactive)	12.1 µM (inactive)	3.73 µM (inactive)	2.36 µM (inactive)	12.5 µM (inactive)	15.8 µM (inactive)	–	7.74 µM (inactive)	8.75 µM (inactive)	24.8 µM (inactive)	17.2 µM (inactive)	22.8 µM (inactive)	7.18 µM	11.9 µM (inactive)	14.2 µM (inactive)
CC(C)(C)c1ccc2c(c1)CNCCNCc1cc(C(C)(C)C)ccc1OCC1(CO2)COc2ccc(C(C)(C)C)cc2CNCCNCc2cc(C(C)(C)C)ccc2OC1	0.394 µM (active)	0.225 µM (active)	1.73 µM (inactive)	1.26 µM (inactive)	0.271 µM (active)	1.58 µM (inactive)	1.41 µM (inactive)	0.276 µM (active)	0.2 µM (active)	0.213 µM (active)	1.71 µM (inactive)	0.501 µM (active)	0.931 µM	0.649 µM (active)	0.649 µM (active)
Cc1cn(C2CC(N)C(C(=O)O)O2)c(=O)[nH]c1=O (stereo unspecified)	> 100 µM (inactive)	> 100 µM (inactive)	> 100 µM (inactive)	> 100 µM (inactive)	> 100 µM (inactive)	> 100 µM (inactive)	> 100 µM (inactive)	> 100 µM (inactive)	> 100 µM (inactive)	> 100 µM (inactive)	–	> 100 µM (inactive)	> 100 µM	> 100 µM (inactive)	> 100 µM (inactive)
CNC(=S)Nc1ccc(OC)c2ccccc12	> 10 µM (inactive)	> 10 µM (inactive)	> 10 µM (inactive)	> 10 µM (inactive)	> 10 µM (inactive)	> 10 µM (inactive)	> 10 µM (inactive)	–	> 10 µM (inactive)	> 10 µM (inactive)	> 10 µM (inactive)	> 10 µM (inactive)	> 10 µM	> 10 µM (inactive)	> 10 µM (inactive)
CC(C)CC(C#CCCOC(=O)c1ccccc1)OC(=O)c1ccccc1 (stereo unspecified)	> 10 µM (inactive)	> 10 µM (inactive)	> 10 µM (inactive)	> 10 µM (inactive)	> 10 µM (inactive)	> 10 µM (inactive)	> 10 µM (inactive)	> 10 µM (inactive)	> 10 µM (inactive)	> 10 µM (inactive)	> 10 µM (inactive)	> 10 µM (inactive)	> 10 µM	> 10 µM (inactive)	–
Cc1ccc(S(=O)(=O)N(CC(O)COc2ccccc2)c2c(F)c(F)c(F)c(F)c2F)cc1 (stereo unspecified)	12.8 µM (inactive)	21.6 µM (inactive)	22.3 µM (inactive)	8.49 µM (inactive)	16.4 µM (inactive)	13.6 µM (inactive)	22.8 µM (inactive)	14.4 µM (inactive)	< 0.01 µM (active)	–	16.9 µM (inactive)	18.7 µM (inactive)	16.5 µM	15.6 µM (inactive)	16.3 µM (inactive)
O=C1CCCC/C1=C\c1ccc(Br)cc1	16.8 µM (inactive)	2.14 µM (inactive)	40 µM (inactive)	17.1 µM (inactive)	15.8 µM (inactive)	97.7 µM (inactive)	7.73 µM (inactive)	35.5 µM (inactive)	12.6 µM (inactive)	4.33 µM (inactive)	13.7 µM (inactive)	> 100 µM (inactive)	–	16.3 µM (inactive)	17.6 µM (inactive)
O=[N+]([O-])C1=Cc2c(O)ccc(O)c2C2c3ccccc3NC12 (stereo unspecified)	13.6 µM (inactive)	3.18 µM (inactive)	24.7 µM (inactive)	7.28 µM (inactive)	14.7 µM (inactive)	6.3 µM (inactive)	–	12.8 µM (inactive)	3.88 µM (inactive)	9.27 µM (inactive)	18.5 µM (inactive)	9.1 µM (inactive)	13 µM	18.3 µM (inactive)	11.6 µM (inactive)
COC(=O)[C@H](Cc1c[nH]c2ccccc12)NC(=O)OCC1OC(n2cc(C)c(=O)[nH]c2=O)CC1N=[N+]=[N-] (stereo partly specified)	> 100 µM (inactive)	33.6 µM (inactive)	> 100 µM (inactive)	> 100 µM (inactive)	> 100 µM (inactive)	> 100 µM (inactive)	> 100 µM (inactive)	49.4 µM (inactive)	93.3 µM (inactive)	> 100 µM (inactive)	–	> 100 µM (inactive)	> 100 µM	> 100 µM (inactive)	> 100 µM (inactive)
O=S(=O)(O)c1cccc2c(/N=N/c3c(O)ccc4ccccc34)cccc12	> 100 µM (inactive)	> 100 µM (inactive)	> 100 µM (inactive)	> 100 µM (inactive)	> 100 µM (inactive)	> 100 µM (inactive)	> 100 µM (inactive)	–	> 100 µM (inactive)	> 100 µM (inactive)	> 100 µM (inactive)	> 100 µM (inactive)	> 100 µM	> 100 µM (inactive)	> 100 µM (inactive)
c1ccc(-c2nc(-c3ccccc3)c(-c3ccccc3)[nH]2)cc1	> 72.6 µM (inactive)	> 35.8 µM (inactive)	> 100 µM (inactive)	> 100 µM (inactive)	> 100 µM (inactive)	> 100 µM (inactive)	36.1 µM (inactive)	44.9 µM (inactive)	17 µM (inactive)	–	> 100 µM (inactive)	> 100 µM (inactive)	> 100 µM	> 88.7 µM (inactive)	> 100 µM (inactive)
